The values that follow come from patent US20230416275A1, “MODULATORS OF CYSTIC FIBROSIS TRANSMEMBRANE CONDUCTANCE REGULATOR” (VERTEX PHARMACEUTICALS INCORPORATED, priority 2020, published 2023).

Where two headings read alike, the source gives them in different places.

The conditions of data set [1]: amide bond.
The next data set addresses T1, F508del in NIH 3T3 cells (Homo sapiens, UniProt P13569, DEL508-508).
T1 construct: expressed in transfected cells
Description: 3T3 assay: membrane potential optical assay for F508del correction. It counts as cell-based, mouse. The conditions noted are these: for EC50: F508del NIH 3T3 cells, compound incubation 18-24 hours at 37° C., forskolin activation, read-out: 3T3 EC50; for Emax: NIH3T3, F508del NIH 3T3 cells, efficacy compared to lumacaftor in combination with acutely added 300 nM Ivacaftor, read-out: 3T3 Max Activity (%). The method in brief: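 NIH3T3 mouse fibroblasts stably expressing F508del incubated with corrector compounds at a range of concentrations for 16-24 h at 37 °C, then loaded with voltage-sensing redistribution dye. Single addition of forskolin with Cl− gradient (chloride-free gluconate bath vs. NaCl bath, pH 7.4); membrane potential change read by fluorescence on FLIPR.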

Data set [2] concerns the target T2, CFTR-mediated chloride transport in human intestinal epithelial enteroid cells (Homo sapiens, UniProt P13569). Description: Membrane potential dye, Enteroid Assay A. It counts as cell-based. The conditions noted are these: for Ent. A Max Activity (%): % of chloride transport of triple combination control (3 μM N-[(6-amino-2-pyridyl)sulfonyl]-6-(3-fluoro-5-isobutoxy-phenyl)-2-[(4S)-2,2,4-trimethylpyrrolidin-1-yl]pyridine-3-carboxamide, 3 μM tezacaftor, 300 nM acute ivacaftor); for EC50: enteroid cells, 18-24 hours incubation, acute 10 μM forskolin and 300 nM ivacaftor, read-out: Ent. A EC50. The method in brief:
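Enteroids seeded at 5000 cells/well were exposed to test compound in IEMM for 18-24 h at 37 °C, then loaded with methyl oxonol membrane potential dye. Chloride transport was triggered in chloride-free buffer with 10 μM forskolin, 100 μM IBMX and 300 nM Compound III, read by fluorescence for 15 min and expressed as % of a triple-combination control.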

The conditions of data set [3]: amide bond; 14-membered ring; HATU/DIEA; DMF; 3 steps.
Data set [4] addresses T2, CFTR-mediated chloride transport in human intestinal epithelial enteroid cells. Description: Membrane potential dye, Enteroid Assay B. It counts as cell-based. The conditions noted are these: for Ent. B Max Activity (%): % of chloride transport of triple combination control (1 μM (14S)-8-[3-(2-{Dispiro[2.0.2.1]heptan-7-yl}ethoxy)-1H-pyrazol-1-yl]-12,12-dimethyl-... macrocycle, 3 μM tezacaftor, 300 nM acute ivacaftor); for EC50: enteroid cells, 18-24 hours incubation, acute 10 μM forskolin and 300 nM ivacaftor, read-out: Ent. B EC50. How it is done:
Base medium (ADF+++) consisted of Advanced DMEM/Ham's F12, 2 mM Glutamax, 10 mM HEPES, […] penicillin/streptomycin.
Intestinal enteroid maintenance medium (IEMM) consisted of ADF+++, 1×B27 supplement, 1×N2 supplement, 1.25 mM N-acetyl cysteine, 10 mM Nicotinamide, 50 ng/mL hEGF, 10 nM Gastrin, 1 μg/mL hR-spondin-1, 100 ng/mL hNoggin, TGF-b type 1 inhibitor A-83-01, 100 μg/mL Primocin, 10 μM P38 MAPK inhibitor SB202190.
Bath 1 Buffer consisted of 1 mM MgCl2, 160 mM NaCl, 4.5 mM KCl, 10 mM HEPES, 10 mM Glucose, 2 mM CaCl2.
Chloride Free Buffer consisted of 1 mM Magnesium Gluconate, 2 mM Calcium Gluconate, 4.5 mM Potassium Gluconate, 160 mM Sodium Gluconate, 10 mM HEPES, 10 mM Glucose.
Bath1 Dye Solution consisted of Bath 1 Buffer, 0.04% Pluronic F127, 20 μM Methyl Oxonol, 30 μM CaCCinh-A01, 30 μM Chicago Sky Blue.
Chloride Free Dye Solution consisted of Chloride Free Buffer, 0.04% Pluronic F127, 20 μM Methyl Oxonol, 30 μM CaCCinh-A01, 30 μM Chicago Sky Blue.
Chloride Free Dye Stimulation Solution consisted of Chloride Free Dye Solution, 10 μM forskolin, 100 μM IBMX, and 300 nM Compound III.
Human intestinal epithelial enteroid cells were obtained from the Hubrecht Institute for Developmental Biology and Stem Cell Research, Utrecht, The Netherlands and expanded in T-Flasks as previously described (Dekkers J F, Wiegerinck C L, de Jonge H R, Bronsveld I, Janssens H M, de Winter-de Groot K M, Brandsma A M, de Jong N W M, Bijvelds M J C, Scholte B J, Nieuwenhuis E E S, van den Brink S, Clevers H, van der Ent C K, Middendorp S and M Beekman J M. A functional CFTR assay using primary cystic fibrosis intestinal organoids. Nat Med. 2013 July; 19(7):939-45).
c. Enteroid Cell Harvesting and Seeding
Cells were recovered in cell recovery solution, collected by centrifugation at 650 rpm for 5 minutes at 4° C., resuspended in TrypLE and incubated for 5 minutes at 37° C. Cells were then collected by centrifugation at 650 rpm for 5 minutes at 4° C. and resuspended in IEMM containing 10 μM ROCK inhibitor (RI). The cell suspension was passed through a 40 μm cell strainer and resuspended at 1×10^6 cells/mL in IEMM containing 10 μM RI. Cells were seeded at 5000 cells/well into multi-well plates and incubated for overnight at 37° C., 95% humidity and 5% CO2 prior to assay.
e. Membrane Potential Dye, Enteroid Assay B
Enteroid cells were incubated with test compound in IEMM for 18-24 hours at 37° C., 95% humidity and 5% CO2. […] Briefly, cells were washed 5 times in Bath 1 Buffer. Bath 1 Dye Solution was added and the cells were incubated for 25 minutes at room temperature. Following dye incubation, cells were washed 3 times in Chloride Free Dye Solution. Chloride transport was initiated by addition of Chloride Free Dye Stimulation Solution and the fluorescence signal was read for 15 minutes. […] Chloride transport was then expressed as a percentage of the chloride transport following treatment with 1 μM (14S)-8-[3-(2-{Dispiro[2.0.2.1]heptan-7-yl}ethoxy)-1H-pyrazol-1-yl]-12,12-dimethyl-2λ^6-thia-3,9,11,18,23-pentaazatetracyclo[17.3.1.111,14.05,10]tetracosa-1(22),5,7,9,19(23),20-hexaene-2,2,4-trione, 3 μM (R)-1-(2,2-difluorobenzo[d][1,3]dioxol-5-yl)-N-(1-(2,3-dihydroxypropyl)-6-fluoro-2-(1-hydroxy-2-methylpropan-2-yl)-1H-indol-5-yl)cyclopropanecarboxamide and 300 nM acute N-[2,4-bis(1,1-dimethylethyl)-5-hydroxyphenyl]-1,4-dihydro-4-oxoquinoline-3-carboxamide triple combination control (% Activity).

The target of a further data set is CFTR (Homo sapiens, UniProt P13569). Description: standard Ussing Chamber Assay for CFTR potentiator activity. The data set is classed as cell-based. How it is done:
tert-Butyl N-[(6R,12R)-6-benzyloxy-12-methyl-6,15-bis(trifluoromethyl)-13,19-dioxa-3,4,18-triazatricyclo[12.3.1.12,5]nonadeca-1(18),2,4,14,16-pentaen-17-yl]-N-tert-butoxycarbonyl-carbamate (8.6 g, 11.77 mmol) was dissolved in ethanol (172 mL) then the flask was cycled 3 times between vacuum/nitrogen. Treated the mixture with 10% Pd/C (50% water wet, 1.8 g of 5% w/w, 0.8457 mmol) then cycled 3 times between vacuum/nitrogen and 3 times between vacuum/hydrogen and then stirred vigorously under hydrogen (balloon) at room temperature for 18 hours. The mixture was cycled 3 times between vacuum/nitrogen, filtered over Celite, washing with ethanol, and then the filtrate was evaporated to give 7.3 g of tert-butyl N-tert-butoxycarbonyl-N-[(6R,12R)-6-hydroxy-12-methyl-6,15-bis(trifluoromethyl)-13,19-dioxa-3,4,18-triazatricyclo[12.3.1.12,5]nonadeca-1(18),2,4,14,16-pentaen-17-yl]carbamate an off-white solid. 1H NMR and MS confirmed the expected product. CFTR modulatory activity was confirmed using a standard Ussing Chamber Assay for CFTR potentiator activity.

T2 sequence (P13569 with tags, fused parts or gaps DEL508-508): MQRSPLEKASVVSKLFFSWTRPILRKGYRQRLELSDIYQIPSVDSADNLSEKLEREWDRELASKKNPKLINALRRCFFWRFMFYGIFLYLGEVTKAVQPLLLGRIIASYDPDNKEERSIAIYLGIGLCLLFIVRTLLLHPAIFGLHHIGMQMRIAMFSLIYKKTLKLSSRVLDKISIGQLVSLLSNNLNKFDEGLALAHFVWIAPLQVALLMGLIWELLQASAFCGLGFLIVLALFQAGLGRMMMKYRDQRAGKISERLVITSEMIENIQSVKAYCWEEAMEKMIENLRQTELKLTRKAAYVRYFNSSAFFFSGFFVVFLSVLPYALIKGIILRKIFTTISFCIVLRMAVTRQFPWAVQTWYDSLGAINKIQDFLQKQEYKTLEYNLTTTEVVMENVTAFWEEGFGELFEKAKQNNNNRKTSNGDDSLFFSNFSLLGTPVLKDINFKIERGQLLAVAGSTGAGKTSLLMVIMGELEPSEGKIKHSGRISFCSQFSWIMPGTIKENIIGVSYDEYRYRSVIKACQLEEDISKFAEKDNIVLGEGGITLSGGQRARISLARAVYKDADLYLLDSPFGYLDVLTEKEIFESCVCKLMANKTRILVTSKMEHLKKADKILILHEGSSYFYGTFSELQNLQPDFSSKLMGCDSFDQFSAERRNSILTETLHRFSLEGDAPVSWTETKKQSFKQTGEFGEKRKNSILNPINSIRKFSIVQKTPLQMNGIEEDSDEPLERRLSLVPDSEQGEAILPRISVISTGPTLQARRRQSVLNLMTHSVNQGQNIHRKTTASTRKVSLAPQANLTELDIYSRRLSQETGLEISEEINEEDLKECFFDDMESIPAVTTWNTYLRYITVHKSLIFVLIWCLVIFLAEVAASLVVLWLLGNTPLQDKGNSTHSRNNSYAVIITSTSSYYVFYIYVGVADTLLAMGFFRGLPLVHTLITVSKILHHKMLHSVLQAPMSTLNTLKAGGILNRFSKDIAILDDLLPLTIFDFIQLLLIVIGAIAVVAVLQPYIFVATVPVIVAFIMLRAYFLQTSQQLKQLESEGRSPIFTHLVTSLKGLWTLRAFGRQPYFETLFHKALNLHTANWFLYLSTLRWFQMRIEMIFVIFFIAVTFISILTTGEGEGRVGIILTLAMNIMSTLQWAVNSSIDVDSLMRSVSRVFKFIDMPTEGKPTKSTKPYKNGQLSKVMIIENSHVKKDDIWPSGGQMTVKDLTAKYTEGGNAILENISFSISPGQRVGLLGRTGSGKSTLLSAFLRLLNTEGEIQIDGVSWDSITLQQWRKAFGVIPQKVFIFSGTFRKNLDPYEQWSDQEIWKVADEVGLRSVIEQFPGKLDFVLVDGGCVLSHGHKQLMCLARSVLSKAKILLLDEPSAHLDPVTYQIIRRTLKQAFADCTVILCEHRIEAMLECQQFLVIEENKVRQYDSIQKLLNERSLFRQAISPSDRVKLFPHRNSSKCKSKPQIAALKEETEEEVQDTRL
T1 sequence (P13569 with tags, fused parts or gaps DEL508-508): as above
Sequence of CFTR (P13569 whole entry, species assumed): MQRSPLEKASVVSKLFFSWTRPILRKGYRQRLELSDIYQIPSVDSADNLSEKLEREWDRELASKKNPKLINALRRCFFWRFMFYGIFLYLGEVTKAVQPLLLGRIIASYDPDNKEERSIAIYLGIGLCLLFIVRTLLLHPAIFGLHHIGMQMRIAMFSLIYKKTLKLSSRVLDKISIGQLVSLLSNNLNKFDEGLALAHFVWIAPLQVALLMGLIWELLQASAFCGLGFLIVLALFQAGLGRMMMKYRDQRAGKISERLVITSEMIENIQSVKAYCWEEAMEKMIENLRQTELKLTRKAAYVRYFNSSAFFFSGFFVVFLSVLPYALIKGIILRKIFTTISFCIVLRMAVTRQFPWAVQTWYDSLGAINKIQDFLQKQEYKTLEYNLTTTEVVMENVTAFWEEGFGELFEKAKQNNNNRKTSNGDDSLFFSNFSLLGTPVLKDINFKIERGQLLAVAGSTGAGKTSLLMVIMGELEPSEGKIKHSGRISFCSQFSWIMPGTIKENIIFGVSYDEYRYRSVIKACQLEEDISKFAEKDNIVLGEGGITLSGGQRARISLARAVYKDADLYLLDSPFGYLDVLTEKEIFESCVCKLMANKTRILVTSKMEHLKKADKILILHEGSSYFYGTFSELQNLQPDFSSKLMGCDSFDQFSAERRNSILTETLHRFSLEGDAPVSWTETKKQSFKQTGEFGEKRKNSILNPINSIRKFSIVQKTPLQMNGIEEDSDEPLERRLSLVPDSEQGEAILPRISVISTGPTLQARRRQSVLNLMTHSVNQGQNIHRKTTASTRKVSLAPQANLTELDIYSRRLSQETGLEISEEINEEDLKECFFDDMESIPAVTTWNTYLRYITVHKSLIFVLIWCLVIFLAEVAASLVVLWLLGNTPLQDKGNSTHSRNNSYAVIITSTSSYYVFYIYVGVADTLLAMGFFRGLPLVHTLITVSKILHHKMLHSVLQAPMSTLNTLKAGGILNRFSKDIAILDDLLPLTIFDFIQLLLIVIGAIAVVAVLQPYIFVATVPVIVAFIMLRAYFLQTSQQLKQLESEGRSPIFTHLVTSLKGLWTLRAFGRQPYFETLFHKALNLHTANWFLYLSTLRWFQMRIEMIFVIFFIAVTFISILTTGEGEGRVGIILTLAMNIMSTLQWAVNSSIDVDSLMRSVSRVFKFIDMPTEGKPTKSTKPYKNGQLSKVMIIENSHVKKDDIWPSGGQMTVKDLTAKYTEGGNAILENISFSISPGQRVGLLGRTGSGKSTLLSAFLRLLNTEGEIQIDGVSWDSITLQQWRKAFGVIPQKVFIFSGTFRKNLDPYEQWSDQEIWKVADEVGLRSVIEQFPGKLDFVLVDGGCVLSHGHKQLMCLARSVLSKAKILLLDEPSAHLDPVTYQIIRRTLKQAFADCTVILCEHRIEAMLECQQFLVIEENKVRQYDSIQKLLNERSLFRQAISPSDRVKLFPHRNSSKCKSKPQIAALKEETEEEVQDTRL

Compound `Cc1ccc2cc1Oc1cc(-c3c(C)cccc3C)nc(n1)NS(=O)(=O)c1cccc(c1)NC(=O)CC2` [Compound 66, 5-(2,6-Dimethylphenyl)-22-methyl-9,9-dioxo-2-oxa-9λ^6-thia-6,8,15,25-tetraazatetracyclo[17.3.1.13,7.110,14]pentacosa-1(22),3,5,7(25),10(24),11,13,19(23),20-nonaen-16-one] registered a ring closure, yield after HPLC in data set [1] (16-membered ring, none (thermal, isolated OPfp ester), NMP, 67.6 mM, 100.0 °C, 4 steps) of 6%. Further, on F508del in NIH 3T3 cells, the EC50 was less than 1 µM and the Emax is greater than 60%. In data set [2], the “Ent. A Max Activity (%)” value is reported as “+++ (+++ is >60%)” and the EC50 was 1 to 3 µM.
In data set [3], `Cc1cccc(C)c1-c1cc2nc(n1)NS(=O)(=O)c1cccc(c1)NC(=O)c1cc(ccc1Br)O2` displayed a ring closure, isolated yield of 20%.
As to `Cc1cccc(C)c1-c1cc2nc(n1)NS(=O)(=O)c1cccc(c1)OCCCO2` [Compound 122], in data set [4], the “Ent. B Max Activity (%)” value is on record as “+ (+ is <30%)” and the EC50 lay in the range of 3 to 30 µM.
On to `C[C@@H]1CCCCC[C@](O)(C(F)(F)F)C2=NN=C(O2)c2nc(c(C(F)(F)F)cc2N)O1` [(6R,12R)-17-amino-12-methyl-6,15-bis(trifluoromethyl)-13,19-dioxa-3,4,18-triazatricyclo[12.3.1.12,5]nonadeca-1(18),2,4,14,16-pentaen-6-ol], for which, on CFTR, the CFTR modulatory activity entry is given as “confirmed”.
In turn, `Cc1cccc(C)c1-c1cc2nc(n1)NS(=O)(=O)c1cccc(c1)NC(=O)c1cccc(c1C)O2` came in with a ring closure, isolated yield in data set [3] of 33%.
The compound `Cc1cccc(C)c1-c1cc2nc(n1)NS(=O)(=O)c1cccc(c1)NC(=O)c1cc(ccc1Cl)O2` [Compound 55, 18-chloro-5-(2,6-dimethylphenyl)-9,9-dioxo-2-oxa-9λ^6-thia-6,8,15,23-tetraazatetracyclo[15.3.1.13,7.110,14]tricosa-1(21),3,5,7(23),10(22),11,13,17,19-nonaen-16-one] gave a ring closure, yield after HPLC in data set [1] (from Cc1cccc(C)c1-c1cc(Oc2ccc(Cl)c(C(=O)O)c2)nc(NS(=O)(=O)c2cccc(N)c2)n1, 14-membered ring, HATU/DIEA, 1.0 h) of 38%. Besides, on F508del in NIH 3T3 cells, the EC50 was less than 1 µM and the Emax was greater than 60%. Further, in data set [2], the “Ent. A Max Activity (%)” value is reported as “+++ (+++ is >60%)” and the EC50 was 1 to 3 µM.
On to `Cc1cccc(C)c1-c1cc2nc(n1)NS(=O)(=O)c1cccc(c1)OC(Cc1ccccc1)CCO2` (centres unmarked) [Compound 120], for which, in data set [4], the “Ent. B Max Activity (%)” value was “++ (++ is 30-60%)” and the EC50 was less than 1 µM.
On to `Cc1cccc(C)c1-c1cc2nc(n1)NS(=O)(=O)c1cccc(c1)OC(c1ccccc1)CCO2` (centres unmarked) [Compound 121], for which, in data set [4], the “Ent. B Max Activity (%)” value is “+++ (+++ is >60%)” and the EC50 is less than 1 µM.
With `Cc1cccc(C)c1-c1cc2nc(n1)NS(=O)(=O)c1cccc(c1)NC(=O)CCCc1cccc(c1)O2` [Compound 65, 5-(2,6-Dimethylphenyl)-9,9-dioxo-2-oxa-9λ^6-thia-6,8,15,26-tetraazatetracyclo[18.3.1.13,7.110,14]hexacosa-1(23),3,5,7(26),10(25),11,13,20(24),21-nonaen-16-one], the ring closure, yield after HPLC in data set [1] (from Cc1cccc(C)c1-c1cc(Oc2cccc(CCCC(=O)O)c2)nc(NS(=O)(=O)c2cccc(N)c2)n1, 17-membered ring, HATU/DIEA, DMF, 56.8 mM, 0.033 h) was found to be 28%. Besides, on F508del in NIH 3T3 cells, the 50% effective concentration (EC50) was less than 1 µM and the Emax was greater than 60%. Also, in data set [2], the “Ent. A Max Activity (%)” value was “+++ (+++ is >60%)” and the EC50 is 1 to 3 µM.
Turning to `Cc1cccc(C)c1-c1cc2cc(n1)NS(=O)(=O)c1cccc(c1)NC(=O)c1cccc(c1)O2` [Compound 77, 5-(2,6-Dimethylphenyl)-9,9-dioxo-2-oxa-9λ^6-thia-6,8,15-triazatetracyclo[15.3.1.13,7.110,14]tricosa-1(20),3,5,7(23),10(22),11,13,17(21),18-nonaen-16-one], the ring closure, yield after HPLC in data set [1] (14-membered ring, HATU/DIEA, DMF, 130.0 mM) came out at 60%. At F508del in NIH 3T3 cells, the EC50 is less than 1 µM and the Emax is greater than 60%. Further, in data set [2], the “Ent. A Max Activity (%)” value is given as “++ (++ is 30-60%)” and the EC50 was 3 to 30 µM.
In turn, `Cc1cccc(C)c1-c1cc2nc(n1)NS(=O)(=O)c1cncc(c1)NC(=O)C1CC(CN(C(=O)OC(C)(C)C)C1)O2` (racemic) [Compound 14, tert-Butyl 19-(2,6-dimethylphenyl)-8,15,15-trioxo-2-oxa-15λ^6-thia-5,9,12,16,18,21-hexaazatetracyclo[15.3.1.13,7.110,14]tricosa-1(21),10,12,14(22),17,19-hexaene-5-carboxylate] yielded a ring closure, yield after HPLC in data set [1] (from Cc1cccc(C)c1-c1cc(OC2CC(C(=O)Oc3c(F)c(F)c(F)c(F)c3F)CN(C(=O)OC(C)(C)C)C2)nc(NS(=O)(=O)c2cncc(N)c2)n1, 14-membered ring, none (thermal, OPfp ester), NMP, 12.1 mM, 140.0 °C, 5.0 h, 5 steps) of 1%. In data set [2], the “Ent. A Max Activity (%)” value is given as “+ (+ is <30%)” and the EC50 is less than 1 µM.

As a reminder, the EC50 is the concentration that produces a half-maximal response.
